Measurements reported in patent US20250042925A1, “Improved Compositions and Methods for Targeting Mitochondria in Cancer Cells” (The Medical College of Wisconsin, Inc., priority 2021, published 2025).
“Also recorded” adds a separate entry of the source.

Tests used:
[1] = tested on: KPC1242 murine pancreatic cancer; assay: Tumor growth in KPC1242 engrafted mice; assay type: in vivo; details: 1 mg pCF3-MMe, 5 days on and 2 days off, from 17 days after engraftment
Description: FIGS. 6A-6I show pCF3-MMe inhibits tumor growth with enhanced biosafety relative to MMe. C57BL/6J mice were treated with 1 mg MMe, 1 mg pCF3-MMe, 1 mg MMe, 250 μg MMe, 100 μg MMe, 50 μg MMe, or 25 μg MMe for 6 hours (FIG. 6A) or 5 days (FIG. 6D). Kaplan-Meier survival curve of mice treated for 6 hours (FIG. 6B) or 5 days (FIG. 5E), n=3-5. Numbers of mice surviving over time after a single injection (FIG. 6C) or 5 repeated doses (FIG. 6F). Significance was determined using a Mantel-Cox test (*, p<0.05; **, p<0.01). KPC1242 murine pancreatic cancer engrafted mice were treated with 1 mg pCF3-MMe or vehicle 5 days on and 2 days off (FIG. 6G). […] Tumor volume was measured ex vivo from vehicle and pCF3-MMe-treated mice (FIG. 6I). […] Significant differences were determined by Student's t-test (*, p<0.05).
Given the strong safety shown from a single injection, further studies were conducted to determine if mice tolerated repeated injection using our published treatment schedule by injecting non-tumor-bearing mice daily for 5 consecutive days with doses ranging from as little as 25 μg/mouse to as much as 1 mg/mouse 20 (FIG. 6D). […] Taken together, trifluoromethylation of TPP^+ improves the reproducible detection, quantitative measurement, and safety profile of TPP^+-conjugated compounds while retaining potent anti-tumor effects in vivo. […]

[2] = Quantitative 19F-NMR of compound persistence in tumor, blood and liver; assay type: in vivo, mice
Description: To validate ^19F-NMR as a viable detection approach, the persistence of pCF3-MMe in tumors was analyzed. KPC1242 engrafted mice were administered 1 mg/mouse pCF3-MMe starting 12 days after implantation. […] We next designed a quantitative NMR approach to measure the in vivo persistence of pCF3-MMe. First, serial dilutions of known concentrations of pCF3-MMe were prepared, and the intensity of the NMR peaks at a set scan number (n=64) was used to create a standard curve. Next, a one-phase decay least-squares fit equation was generated to calculate the amount of pCF3-MMe at each time point using the standardized scan number.
Cells (1×10^7 cells/10 cm dish) were allowed to adhere overnight and then treated with varying concentrations of mitochondria-targeted compounds. Compounds were extracted using multiple methods and optimized for detection and quantification: A) Cells or tumors were placed in a dry ice ethanol bath followed by 80% v/v MeOH in water. Cells were placed on a dry ice ethanol bath on an orbital shaker for 20 minutes, and then cells were collected and centrifuged at 10,000×g; B) Post-treatment cells were lifted with TrypLE (Gibco, Cat #11558856) and centrifuged, then compound was extracted from the cells or tumors with 9:1 CHCl3:H2O, CH2Cl2, or 1:1 MeCN:H2O. Following extraction, solvents were evaporated using a Biotage V-10 Touch (Uppsala, Sweden), and before NMR acquisition, samples were resuspended in an equal volume of DMSO-d6.
^19F 1D-NMR spectra were collected on a Bruker Avance-III 500 MHz NMR spectrometer equipped with a 1H&^19F/13C/15N-TCI cryoprobe. […] To evaluate pCF3-MMe concentrations in biological samples, a standard curve was generated using pCF3-MMe concentrations of 0.25, 0.50, 0.75, 1.0, 1.25, and 1.5 mg/mL, and the resulting peak intensities were analyzed by linear regression. […]
All animal studies were approved by the Institutional Animal Care and Use Committees at the Medical College of Wisconsin. […] Tumors were excised, and volume (length×width×depth=mm^3) was measured post-mortem using calipers. […]

[3] = tested on: pancreatic, breast, and colon cancers; details: cited from earlier work

Compound: N=C(N)NC(=N)NCCCCCCCCCC[P+](c1ccc(C(F)(F)F)cc1)(c1ccc(C(F)(F)F)cc1)c1ccc(C(F)(F)F)cc1.[Br-] [pCF3-MMe, (10-(3-carbamimidoylguanidino)decyl)tris(4-(trifluoromethyl)phenyl)phosphonium bromide]
- tumor size and volume [1]: significantly decreased tumor size and volume
- detection in the blood and liver ([2]; 2 hours after injection, 1 mg): undetectable; also recorded: not detected
- detection in the blood and liver ([2]; 6 hours after injection): barely detectable above the signal-to-noise ratio
- levels within the tumors ([2]; 24 hours after injection, 1 mg/mouse): measurable levels

Compound: N=C(N)NC(=N)NCCCCCCCCCC[P+](c1ccccc1)(c1ccccc1)c1ccccc1.[Br-] [MMe, 10-[(carbamimidamidomethanimidoyl)amino]decyl-triphenylphosphonium bromide, reference compound]
- efficacy compared to metformin [3]: 100-1000 fold
